According to patent US20060193853A1, “Combinations of growth-and hormone-regulating factors for the treatment of neoplasia” (priority 2002, published 2006):

System: tumor cell line Dunning R3327-G
Experiment: Tumor reduction in Copenhagen rats implanted with tumor cell line Dunning R3327-G (tumor weight at sacrifice)
Type: in vivo
Conditions: three months following the tumor line implant
Protocol: Tumor cell line Dunning R3327-G was implanted into 9-12 weeks old Copenhagen rats (with approximately 100 g of body weight each), which were subjected to different treatments with 2×10^6 cell density per animal in implant medium (RPMI 1640, serum-free in 0.5 ml), on the laxed area of the flanks. One hundred percent attachment efficiency was accomplished in the animals after 90 days.
Eight groups of ten animals each one were formed for the experiment, with Copenhagen rats as described before. […]
DES treatment was made on and off, three times a week at a rate of 1 mg/kg/day, as long as the experiment lasted; and it started once the cells were inoculated. […] (1) The expected effect (Etheoretical) in the case of double combination formulations can be calculated in case either effect is not mutually excluding (Caridad W., Guerra Bustillo, Ernesto Menendez Acuna, Rolando Barrera Morena, Esteban Egana Morales. “Estadistica”, Editorial Pueblo y Educacion, 1989), according to: Etheoretical=ET1+ET2−(ET1*ET2). […]

SMILES: CC/C(=C(/CC)c1ccc(O)cc1)c1ccc(O)cc1 [DES, dietilestilbestrol]
- Treatment effect. Etreatment=1-(Ptreatment/Pplacebo) (relative to placebo mean tumor weight): 0.597
- Tumor weight (g) (Mean of ten animals) (tumor dried and weighed): 12.66 g
